Assay results published in patent US7973162B2, “Modulators of muscarinic receptors” (Vertex Pharmaceuticals Incorporated, priority 2007, dated 2011).
pEC50: −log10 of the molar value.

Columns and labels:
Format in all cases: cell-based
M1 muscarinic receptor = biological target: T1, M1 muscarinic receptor (Homo sapiens, UniProt P11229); experiment: Functional mobilization of intracellular calcium (FLIPR), M1-CHO cells; conditions: for Emax / M1 Efficacy: 100% efficacy = maximum response obtained with the Carbachol control; for pEC50: CHO cells expressing M1, calcium mobilization
T1 construct: expressed in transfected cells; host or cells: CHO (M1-CHO)
T1 sequence (P11229 1-460): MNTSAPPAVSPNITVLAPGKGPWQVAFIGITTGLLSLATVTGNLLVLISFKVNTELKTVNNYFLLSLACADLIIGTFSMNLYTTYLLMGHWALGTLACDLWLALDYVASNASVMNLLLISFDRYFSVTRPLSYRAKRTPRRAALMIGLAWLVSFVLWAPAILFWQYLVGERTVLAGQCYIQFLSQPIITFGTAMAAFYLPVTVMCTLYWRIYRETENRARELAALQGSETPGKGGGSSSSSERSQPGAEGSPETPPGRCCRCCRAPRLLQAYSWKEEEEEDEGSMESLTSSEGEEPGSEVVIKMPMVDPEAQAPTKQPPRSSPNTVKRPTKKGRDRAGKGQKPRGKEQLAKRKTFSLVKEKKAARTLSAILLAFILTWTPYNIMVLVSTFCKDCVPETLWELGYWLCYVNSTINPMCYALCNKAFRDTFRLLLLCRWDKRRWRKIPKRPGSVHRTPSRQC
Method: (§1) Functional Mobilization of Intracellular Calcium to Determine Muscarinic Receptor Activity:
(§2) CHO cells expressing muscarinic receptors (M1 to M5) are grown as monolayers in tissue culture flasks at 37° C. in a humidified atmosphere containing 5% CO2 and passaged every 3-5 days. The growth media is Dulbecco's modified eagles medium (DMEM, Gibco Cat# 12430-054), containing 25 mM Hepes and supplemented with Fetal Bovine Serum (Hyclone, cat #SH30071.03), 0.1 mM of MEM non-essential amino acids (GIBCO, Cat #11140-050), 1 mM MEM Sodium Pyruvate (GIBCO Cat #11360-070) and 100 units/ml of Penicillin G and 100 μg/ml of Streptomycin (GIBCO Cat #15140-122). The recombinant muscarinic receptor cell lines are grown under antibiotic pressure with media containing 25 μg/ml zeocin and 500 μg/ml G418 (M1-CHO), 4 μg/ml puromycin, 50 μg/ml zeocin and 2.5 μg/ml blasticidin (M2 and M4-CHO) or 50 μg/ml zeocin and 4 μg/ml puromycin (M3 and M5-CHO).
(§3) Cells are harvested at 80-90% confluence using Versene (GIBCO Cat #15040-066), collected by centrifugation and seeded 18-24 hrs prior to running the calcium assay at a density of 5,000-10,000 cells/well in […], clear-bottomed 384-well plates (BD Biocoat, poly-D-lysine, Cat#356663). The day of the experiment, the cells are washed with a plate washer (Bioteck Instruments, ELX 405) using bath1 buffer (140-mM NaCl, 4.5-mM KCl, 2-mM CaCl2, 1-mM MgCl2, 10-mM Hepes-Na, 10-mM Glucose, pH 7.4, with NaOH) containing 1 mM Probenecid. Next, the calcium dye Fluo-3 (25 μl/well of Fluo-3 AM at 4 μM, Molecular Probes F-1241, in Bath 1 buffer containing 1 mM Probenecid) is added to the 25 μl of Bath 1 remaining in each well after the plate wash and the dye is loaded at 37° C. in the tissue culture incubator for 60-90 min. The fluorescent dye is removed using the plate washer with Bath 1 containing 1 mM Probenecid, leaving 25 μl/well of this solution after the wash. Alternatively, cells can be loaded with the calcium indicator from Molecular Devices (Calcium 3 Assay Reagents, Cat #R7181) adding 5 μl of a 5× solution dye in Bath 1 containing 1 mM Probenecid (10 ml per dye flask cat #R7182 to generate a solution 20×) to 20 μl of the same buffer. After loading for 60 min, the experiment can be run without having to remove the dye.
(§4) Compounds are prepared at a 2× fold concentration in a 96-well plate (round bottom, Costar Corning cat #3656), by reconstituting the pre-spotted compounds in bath 1 containing 1 mM probenecid. The final concentration DMSO is 0.5%, and the amount of DMSO is normalized across the assay plate. To determine an agonist action of the compounds on muscarinic receptors, the reconstituted compounds are added (25 μl compound/well) to the cell assay plate (containing 25 μl/well) using the multi-channel robotic system of the FLIPR 3 Instrument (Molecular Devices, Sunnyvale, Calif.). To determine a functional inhibitory action of the compounds on muscarinic receptors, the reconstituted compounds are added (25 μl compound/well) to the assay plate and pre-incubated for 15 min prior to adding 25 μl of Carbachol at 3× the EC80 for each muscarinic subtype. Alternatively, the compounds can be co-applied simultaneously with the agonist. In both assay modes, the fluorescence is recorded for 60 sec (excitation wavelength is […] and emission wavelength 540 nm) using the FLIPR 3 instrument.
(§5) The potency, efficacy and selectivity of the muscarinic compounds were evaluated by screening the compound activity across the whole family (M1 to M5 cells). Compounds were also screened for activity on other proteins such as other GPCRs and ion channels to determine selectivity on M4 receptors.
(§6) Examples of activities and efficacies of the muscarinic compounds of formulae (I, Ia, and Ib) on modulating M1 and M4 receptors are shown below in Table 3. […]

M2 muscarinic receptor = biological target: T2, M2 muscarinic receptor (Homo sapiens, UniProt P08172); experiment: Functional mobilization of intracellular calcium (FLIPR), M2-CHO cells; conditions: for Emax / M2 Efficacy: 100% efficacy = maximum response obtained with the Carbachol control; for pEC50: CHO cells expressing M2, calcium mobilization
T2 construct: expressed in transfected cells; host or cells: CHO (M2-CHO)
T2 sequence (P08172 1-466): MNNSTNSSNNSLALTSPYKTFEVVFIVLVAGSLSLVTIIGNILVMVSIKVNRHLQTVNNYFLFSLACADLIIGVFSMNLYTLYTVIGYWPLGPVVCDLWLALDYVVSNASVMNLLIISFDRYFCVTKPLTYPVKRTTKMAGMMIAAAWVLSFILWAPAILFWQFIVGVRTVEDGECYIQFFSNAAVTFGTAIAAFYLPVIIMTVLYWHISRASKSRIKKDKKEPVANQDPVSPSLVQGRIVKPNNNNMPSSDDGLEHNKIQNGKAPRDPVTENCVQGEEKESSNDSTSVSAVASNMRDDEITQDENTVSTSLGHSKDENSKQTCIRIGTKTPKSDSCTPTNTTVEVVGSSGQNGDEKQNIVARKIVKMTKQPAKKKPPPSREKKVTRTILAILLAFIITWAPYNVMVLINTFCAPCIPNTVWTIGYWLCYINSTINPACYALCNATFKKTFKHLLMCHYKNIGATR
Method: as §1, §2, §3, §4, §5, §6

M3 muscarinic receptor = biological target: T3, M3 muscarinic receptor (Homo sapiens, UniProt P20309); experiment: Functional mobilization of intracellular calcium (FLIPR), M3-CHO cells; conditions: for Emax / M3 Efficacy: 100% efficacy = maximum response obtained with the Carbachol control; for pEC50: CHO cells expressing M3, calcium mobilization
T3 construct: expressed in transfected cells; host or cells: CHO (M3-CHO)
T3 sequence (P20309 whole entry): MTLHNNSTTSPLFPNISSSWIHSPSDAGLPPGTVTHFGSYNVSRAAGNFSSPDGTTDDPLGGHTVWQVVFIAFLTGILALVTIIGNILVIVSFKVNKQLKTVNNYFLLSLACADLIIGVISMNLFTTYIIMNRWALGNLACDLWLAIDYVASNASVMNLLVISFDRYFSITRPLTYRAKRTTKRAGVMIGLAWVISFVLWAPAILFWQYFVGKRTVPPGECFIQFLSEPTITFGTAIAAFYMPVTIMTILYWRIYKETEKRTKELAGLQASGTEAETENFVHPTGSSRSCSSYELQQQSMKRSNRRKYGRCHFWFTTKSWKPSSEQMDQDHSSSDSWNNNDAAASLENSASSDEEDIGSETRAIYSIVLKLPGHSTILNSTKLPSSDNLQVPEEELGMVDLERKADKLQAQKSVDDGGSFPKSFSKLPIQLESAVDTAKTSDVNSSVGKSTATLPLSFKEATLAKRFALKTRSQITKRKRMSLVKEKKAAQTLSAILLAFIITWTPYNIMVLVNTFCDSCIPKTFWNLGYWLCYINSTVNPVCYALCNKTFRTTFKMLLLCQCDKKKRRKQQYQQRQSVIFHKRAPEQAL
Method: as §1, §2, §3, §4, §5, §6

M4 muscarinic receptor = biological target: T4, M4 muscarinic receptor (Homo sapiens, UniProt P08173); experiment: Functional mobilization of intracellular calcium (FLIPR), M4-CHO cells; conditions: for Emax / M4 Efficacy: 100% efficacy = maximum response obtained with the Carbachol control; for pEC50: CHO cells expressing M4, calcium mobilization
T4 construct: expressed in transfected cells; host or cells: CHO (M4-CHO)
T4 sequence (P08173 1-479): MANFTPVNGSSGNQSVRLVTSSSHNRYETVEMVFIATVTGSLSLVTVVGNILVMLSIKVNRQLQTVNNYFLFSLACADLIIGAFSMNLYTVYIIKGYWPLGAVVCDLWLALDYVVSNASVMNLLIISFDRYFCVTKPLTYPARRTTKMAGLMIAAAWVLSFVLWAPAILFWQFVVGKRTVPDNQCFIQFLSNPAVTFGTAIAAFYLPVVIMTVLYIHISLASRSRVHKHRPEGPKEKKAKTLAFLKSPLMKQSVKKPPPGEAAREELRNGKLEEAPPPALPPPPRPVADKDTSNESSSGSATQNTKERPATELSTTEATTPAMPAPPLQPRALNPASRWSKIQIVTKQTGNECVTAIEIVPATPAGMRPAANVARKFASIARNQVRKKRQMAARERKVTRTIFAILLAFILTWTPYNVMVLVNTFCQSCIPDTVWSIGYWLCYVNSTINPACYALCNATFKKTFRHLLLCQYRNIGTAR
Method: as §1, §2, §3, §4, §5, §6

SMILES	Emax (M1 muscarinic receptor)	pEC50 (M1 muscarinic receptor)	Emax (M2 muscarinic receptor)	pEC50 (M2 muscarinic receptor)	Emax (M3 muscarinic receptor)	pEC50 (M3 muscarinic receptor)	Emax (M4 muscarinic receptor)	pEC50 (M4 muscarinic receptor)	M1 Efficacy (M1 muscarinic receptor)	M2 Efficacy (M2 muscarinic receptor)	M3 Efficacy (M3 muscarinic receptor)	M4 Efficacy (M4 muscarinic receptor)
CN1C(=O)C[C@@H]2CC3(CCN(C4CCCCC4)CC3)c3ccccc3[C@@H]21 [Compound 23]	25 to 100%	> 5.70	25 to 100%	> 5.70	< 25%	< 5.30	25 to 100%	> 5.70				
CN1C(=O)C[C@@H]2CC3(CCN(C4CC5CCC(C5)C4)CC3)c3ccccc3[C@@H]21 (stereo partly shown) [Compound 3]		> 5.70		> 5.70		< 5.30		> 5.70	++ (efficacy was calculated to be from 100% to 25%)	+ (efficacy was calculated to be less than 25%)	+ (efficacy was calculated to be less than 25%)	++ (efficacy was calculated to be from 100% to 25%)
CCOC(=O)N1CCC(N2CCC3(CC2)CC2CC(=O)OC2c2ccccc23)CC1 (stereo not shown) [Compound 4]	25 to 100%	> 5.70	25 to 100%	> 5.70	25 to 100%	< 5.30	25 to 100%	> 5.70				
O=C1CC2CC3(CCN(CC4CCCCC4)CC3)c3ccccc3C2O1 (stereo not shown) [Compound 18]	25 to 100%	> 5.70	25 to 100%	< 5.30	< 25%	< 5.30	25 to 100%	> 5.70				
c1ccc2c(c1)C1OCCC1CC21CCN(C2CCCCC2)CC1 (stereo not shown) [Compound 26]	25 to 100%	< 5.30	< 25%	< 5.30	< 25%	< 5.30	< 25%	> 5.70				
O=C1C[C@@H]2CC3(CCN(C4CC5CCC(C5)C4)CC3)c3ccccc3[C@@H]2N1 (stereo partly shown) [Compound 5]	25 to 100%	> 5.70	25 to 100%	> 5.70	< 25%	< 5.30	25 to 100%	> 5.70				
CCOC(=O)N1CCC(N2CCC3(CC2)CC2CCOC2c2ccccc23)CC1 (stereo not shown) [Compound 2]	25 to 100%	> 5.70	25 to 100%	> 5.70	< 25%	< 5.30	25 to 100%	> 5.70				
O=C1C[C@@H]2CC3(CCN(C4CCCCC4)CC3)c3ccccc3[C@@H]2N1 [Compound 19]		> 5.70		5.30 to 5.70		< 5.30		> 5.70	++ (efficacy was calculated to be from 100% to 25%)	++ (efficacy was calculated to be from 100% to 25%)	+ (efficacy was calculated to be less than 25%)	++ (efficacy was calculated to be from 100% to 25%)
